In ChEMBL document CHEMBL1155736, “Suberedamines A and B, new bromotyrosine alkaloids from a sponge Suberea species” (J Nat Prod, 2001) one finds IC50 and MIC data, which are given here for 2 compounds.

The IC50 is the point on the concentration scale where inhibition reaches its midpoint. Lower therefore signals greater potency in that assay. As usually defined, the MIC is the lowest concentration that inhibits growth of the organism. Lower therefore signals greater potency.

Assay [1] concerns KB. Nature of the assay: Cytotoxicity against human KB cells. It is filed as functional, cell-based.
The test system of assay [2] is Micrococcus luteus. Nature of the assay: Antibacterial activity against Micrococcus luteus. It counts as functional.
For assay [3], the system named is L1210. Nature of the assay: Cytotoxicity against mouse L1210 cells. It is filed as functional, cell-based.

Values after ≈ are worked out from the molar mass of the structure shown.

As to `COc1ccc(C[C@H](N)C(=O)NCCc2cc(Br)c(OCCCN(C)C)c(Br)c2)cc1Br` [SUBEREDAMINE A], the half-inhibitory concentration (IC50) in assay [1] came to 9 µg/mL (≈ 14.1 µM); in assay [3] it was 8 µg/mL (≈ 12.6 µM). Besides, the MIC in assay [2] worked out at 12.6 µg/mL (≈ 19.8 µM).
On to `CN[C@@H](Cc1ccc(OC)c(Br)c1)C(=O)NCCc1cc(Br)c(OCCCN(C)C)c(Br)c1` [SUBEREDAMINE B], for which the figures for the IC50 in assay [1] and in assay [3] were more than 10 µg/mL and 8.6 µg/mL (≈ 13.2 µM), respectively. The MIC in assay [2] was found to be 12.6 µg/mL (≈ 19.4 µM).
